{"source": "patent US8697641B2", "about": "“4-amino-4-oxobutanoyl peptide cyclic analogues, inhibitors of viral replication” (Achillion Pharmaceuticals, Inc., priority 2008, dated 2014)"}
{"test_system": "Hepatitis C replicon", "assay": "HCV replicon assay (NPT ELISA readout) in Huh-7 replicon-containing cells", "assay_type": "cell-based, Hepatitis C virus", "conditions": "Hepatitis C virus, 72 h; HCV replicon in Huh-7 cells, three days incubation", "in_short": "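Replication is measured as neomycin phosphotransferase level by captured ELISA after three days of compound exposure (typically 10 to 0.03 μM, 6 concentrations) at 37 °C. Cells are Huh-7 harbouring an HCV replicon with neo gene and NS3-NS5B; interferon alpha is the positive control.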", "units": {"EC50": "nM"}}
{"molecule": "COc1ccc2nc(-c3ccccn3)cc(C(=O)N[C@@H]3C[C@H]4C(=O)N[C@]5(C(=O)NS(=O)(=O)C6CC6)C[C@H]5/C=C\\CCCCC[C@H](CC(=O)N5CCCCC5)C(=O)N4C3)c2c1", "note": "[Compound 96, (2R,6R,14aR,16aS,Z)-N-(cyclopropylsulfonyl)-2-(6-methoxy-2-(pyridin-2-yl)quinoline-4-carboxamido)-5,16-dioxo-6-(2-oxo-2-(piperidin-1-yl)ethyl)-1,2,3,5,6,7,8,9,10,11, 13a,14,14a,15,16,16a-hexadecahydrocyclopropa [e]pyrrolo[1,2-a][1,4] diazacyclopentadecine-14a-carboxamide]", "EC50": "< 1000"}
{"molecule": "COc1ccc2nc(-c3ccccn3)cc(C(=O)N[C@@H]3C[C@H]4C(=O)N[C@]5(C(=O)NS(=O)(=O)C6CC6)C[C@H]5/C=C\\CCCCC[C@H](CC(=O)N5CCC(F)(F)CC5)C(=O)N4C3)c2c1", "note": "[Compound 97, (2R,6R,14aR,16aS,Z)-N-(cyclopropylsulfonyl)-6-(2-(4,4-difluoropiperidin-1-yl)-2-oxoethyl)-2-(6-methoxy-2-(pyridin-2-yl)quinoline-4-carboxamido)-5,16-dioxo-1,2,3,5,6,7,8,9,10,11, 13a,14,14a,15,16,16a-hexadecahydrocyclopropa [e]pyrrolo[1,2-a][1,4] diazacyclopentadecine-14a-carboxamide]", "EC50": "< 1000"}
{"molecule": "COc1ccc2nc(-c3ccccn3)cc(C(=O)N[C@@H]3C[C@H]4C(=O)N[C@]5(C(=O)NS(=O)(=O)C6CC6)C[C@H]5/C=C\\CCCCC[C@H](CC(=O)N5CCC(F)(F)C5)C(=O)N4C3)c2c1", "note": "[Compound 98, (2R,6R,14aR,16aS,Z)-N-(cyclopropylsulfonyl)-6-(2-(3,3-difluoropyrrolidin-1-yl)-2-oxoethyl)-2-(6-methoxy-2-(pyridin-2-yl)quinoline-4-carboxamido)-5,16-dioxo-1,2,3,5,6,7,8,9,10,11, 13a,14,14a,15,16,16a-hexadecahydrocyclopropa [e]pyrrolo[1,2-a][1,4] diazacyclopentadecine-14a-carboxamide]", "EC50": "< 1000"}
{"molecule": "COc1ccc2c(O[C@@H]3C[C@H]4C(=O)N[C@]5(C(=O)NS(=O)(=O)C6CC6)C[C@H]5/C=C\\CCCCC[C@H](CC(=O)N5[C@H](C)CCC[C@@H]5C)C(=O)N4C3)cc(-c3ccccc3)nc2c1", "note": "[Compound 99, (2R,6R,14aR,16aS,Z)-N-(cyclopropylsulfonyl)-6-(2-((2R,6S)-2,6-dimethylpiperidin-1-yl)-2-oxoethyl)-2-(7-methoxy-2-phenylquinolin-4-yloxy)-5,16-dioxo-1,2,3,5,6,7,8,9,10,11, 13a,14,14a,15,16,16a-hexadecahydrocyclopropa [e]pyrrolo[1,2-a][1,4] diazacyclopentadecine-14a-carboxamide]", "EC50": "< 1000"}
{"molecule": "COc1ccc2c(O[C@@H]3C[C@H]4C(=O)N[C@]5(C(=O)NS(=O)(=O)C6CC6)C[C@H]5/C=C\\CCCCC[C@H](CC(=O)N5CCCC(F)C5)C(=O)N4C3)cc(-c3ccccn3)nc2c1Cl", "note": "(stereo partly drawn) [Compound 100, (2R,6R,14aR,16aS,Z)-2-(8-chloro-7-methoxy-2-(pyridin-2-yl)quinolin-4-yloxy)-N-(cyclopropylsulfonyl)-6-(2-(3-fluoropiperidin-1-yl)-2-oxoethyl)-5,16-dioxo-1,2,3,5,6,7,8,9,10,11, 13a,14,14a,15,16,16a-hexadecahydrocyclopropa [e]pyrrolo[1,2-a][1,4] diazacyclopentadecine-14a-carboxamide]", "EC50": "< 1000"}
{"molecule": "COc1ccc2c(O[C@@H]3C[C@H]4C(=O)N[C@]5(C(=O)NS(=O)(=O)C6CC6)C[C@H]5/C=C\\CCCCC[C@H](CC(=O)N5CCC(F)CC5)C(=O)N4C3)cc(-c3ccccn3)nc2c1Cl", "note": "[Compound 101, (2R,6R,14aR,16aS,Z)-2-(8-chloro-7-methoxy-2-(pyridin-2-yl)quinolin-4-yloxy)-N-(cyclopropylsulfonyl)-6-(2-(4-fluoropiperidin-1-yl)-2-oxoethyl)-5,16-dioxo-1,2,3,5,6,7,8,9,10,11, 13a,14,14a,15,16,16a-hexadecahydrocyclopropa [e]pyrrolo[1,2-a][1,4] diazacyclopentadecine-14a-carboxamide]", "EC50": "< 1000"}
{"molecule": "COc1ccc2c(O[C@@H]3C[C@H]4C(=O)N[C@]5(C(=O)NS(=O)(=O)C6CC6)C[C@H]5/C=C\\CCCCC[C@H](CC(=O)N5CC[C@H](N)C5)C(=O)N4C3)cc(-c3ccccc3)nc2c1", "note": "[Compound 102, (2R,6R,14aR,16aS, Z)-6-(2-((S)-3-aminopyrrolidin-1-yl)-2-oxoethyl)-N-(cyclopropylsulfonyl)-2-(7-methoxy-2-phenylquinolin-4-yloxy)-5,16-dioxo-1,2,3,5,6,7,8,9,10,11, 13a,14,14a,15,16,16a-hexadecahydrocyclopropa [e]pyrrolo[1,2-a][1,4] diazacyclopentadecine-14a-carboxamide]", "EC50": "< 1000"}
{"molecule": "COc1ccc2c(O[C@@H]3C[C@H]4C(=O)N[C@]5(C(=O)NS(=O)(=O)C6CC6)CC5/C=C\\CCCCC[C@H](CC(=O)N5CC[C@@H](CNC(=O)OC(C)(C)C)C5)C(=O)N4C3)cc(-c3ccccc3)nc2c1", "note": "(stereo partly drawn) [Compound 103, tert-butyl ((3S)-1-(2-((2R,6R,14aR,16aS,Z)-14a-(cyclopropylsulfonyl-carbamoyl)-2-(7-methoxy-2-phenylquinolin-4-yloxy)-5,16-dioxo-1,2,3,5,6,7,8,9,10,11, 13a,14,14a,15,16,16a-hexadecahydrocyclopropa [e]pyrrolo[1,2-a][1,4]diazacyclopentadecin-6-yl)acetyl)pyrrolidin-3-yl)methylcarbamate]", "EC50": "< 1000"}
{"molecule": "COc1ccc2c(O[C@@H]3C[C@H]4C(=O)N[C@]5(C(=O)NS(=O)(=O)C6CC6)C[C@H]5/C=C\\CCCCC[C@H](CC(=O)N5CC[C@@H](CN)C5)C(=O)N4C3)cc(-c3ccccc3)nc2c1", "note": "[Compound 105, (2R,6R,14aR,16aS, Z)-6-(2-((S)-3-(aminomethyl)pyrrolidin-1-yl)-2-oxoethyl)-N-(cyclopropylsulfonyl)-2-(7-methoxy-2-phenylquinolin-4-yloxy)-5,16-dioxo-1,2,3,5,6,7,8,9,10,11, 13a,14,14a,15,16,16a-hexadecahydrocyclopropa [e]pyrrolo[1,2-a][1,4] diazacyclopentadecine-14a-carboxamide]", "EC50": "< 1000"}
{"molecule": "COc1ccc2c(O[C@@H]3C[C@H]4C(=O)N[C@]5(C(=O)NS(=O)(=O)C6CC6)C[C@H]5/C=C\\CCCCC[C@H](CC(=O)N5CC[C@@H](N)C5)C(=O)N4C3)cc(-c3ccccc3)nc2c1", "note": "[Compound 106, (2R,6R,14aR,16aS, Z)-6-(2-((R)-3-aminopyrrolidin-1-yl)-2-oxoethyl)-N-(cyclopropylsulfonyl)-2-(7-methoxy-2-phenylquinolin-4-yloxy)-5,16-dioxo-1,2,3,5,6,7,8,9,10,11, 13a,14,14a,15,16,16a-hexadecahydrocyclopropa [e]pyrrolo[1,2-a][1,4] diazacyclopentadecine-14a-carboxamide]", "EC50": "< 1000"}
{"molecule": "COc1ccc2c(O[C@@H]3C[C@H]4C(=O)N[C@]5(C(=O)NS(=O)(=O)C6CC6)C[C@H]5/C=C\\CCCCC[C@H](CC(=O)N5CC[C@@H](C(C)(C)N)C5)C(=O)N4C3)cc(-c3ccccc3)nc2c1", "note": "[Compound 107, (2R,6R,14aR,16aS, Z)-6-(2-((R)-3-(2-aminopropan-2-yl)pyrrolidin-1-yl)-2-oxoethyl)-N-(cyclopropylsulfonyl)-2-(7-methoxy-2-phenylquinolin-4-yloxy)-5,16-dioxo-1,2,3,5,6,7,8,9,10,11, 13a,14,14a,15,16,16a-hexadecahydrocyclopropa [e]pyrrolo[1,2-a][1,4] diazacyclopentadecine-14a-carboxamide]", "EC50": "< 1000"}
{"molecule": "COc1ccc2c(O[C@@H]3C[C@H]4C(=O)N[C@]5(C(=O)NS(=O)(=O)C6CC6)C[C@H]5/C=C\\CCCCC[C@H](CC(=O)N5CC[C@H](O)C5)C(=O)N4C3)cc(-c3ccccc3)nc2c1", "note": "[Compound 108, (2R,6R,14aR,16aS,Z)-N-(cyclopropylsulfonyl)-6-(2-((S)-3-hydroxypyrrolidin-1-yl)-2-oxoethyl)-2-(7-methoxy-2-phenylquinolin-4-yloxy)-5,16-dioxo-1,2,3,5,6,7,8,9,10,11, 13a,14,14a,15,16,16a-hexadecahydrocyclopropa [e]pyrrolo[1,2-a][1,4] diazacyclopentadecine-14a-carboxamide]", "EC50": "< 1000"}
{"molecule": "COc1ccc2c(O[C@@H]3C[C@H]4C(=O)N[C@]5(C(=O)NS(=O)(=O)C6CC6)C[C@H]5/C=C\\CCCCC[C@H](CC(=O)N[C@@H]5CCNC5)C(=O)N4C3)cc(-c3ccccc3)nc2c1", "note": "[Compound 109, (2R,6R,14aR,16aS,Z)-N-(cyclopropylsulfonyl)-2-(7-methoxy-2-phenylquinolin-4-yloxy)-5,16-dioxo-6-(2-oxo-2-((R)-pyrrolidin-3-ylamino)ethyl)-1,2,3,5,6,7,8,9,10,11, 13a,14,14a,15,16,16a-hexadecahydrocyclopropa [e]pyrrolo[1,2-a][1,4] diazacyclopentadecine-14a-carboxamide]", "EC50": "< 1000"}
{"molecule": "CO/N=C1\\CN(C(=O)C[C@H]2CCCCC/C=C\\[C@@H]3C[C@@]3(C(=O)NS(=O)(=O)C3CC3)NC(=O)[C@@H]3C[C@@H](Oc4cc(-c5ccccc5)nc5cc(OC)ccc45)CN3C2=O)CC1(C)CN", "note": "(stereo partly drawn) [Compound 110, (2R,6R,14aR,16aS,Z)-6-(2-((Z)-3-(aminomethyl)-4-(methoxyimino)-3-methylpyrrolidin-1-yl)-2-oxoethyl)-N-(cyclopropylsulfonyl)-2-(7-methoxy-2-phenylquinolin-4-yloxy)-5,16-dioxo-1,2,3,5,6,7,8,9,10,11, 13a,14,14a,15,16,16a-hexadecahydrocyclopropa [e]pyrrolo[1,2-a][1,4] diazacyclopentadecine-14a-carboxamide]", "EC50": "< 1000"}
{"molecule": "COc1ccc2c(O[C@@H]3C[C@H]4C(=O)N[C@]5(C(=O)NS(=O)(=O)C6CC6)C[C@H]5/C=C\\CCCCC[C@H](CC(=O)N5CC[C@H](C(C)(C)N)C5)C(=O)N4C3)cc(-c3ccccc3)nc2c1", "note": "[Compound 111, (2R,6R,14aR,16aS,Z)-6-(2-((S)-3-(2-aminopropan-2-yl)pyrrolidin-1-yl)-2-oxoethyl)-N-(cyclopropylsulfonyl)-2-(7-methoxy-2-phenylquinolin-4-yloxy)-5,16-dioxo-1,2,3,5,6,7,8,9,10,11, 13a,14,14a,15,16,16a-hexadecahydrocyclopropa [e]pyrrolo[1,2-a][1,4] diazacyclopentadecine-14a-carboxamide]", "EC50": "< 1000"}
